Experiment [1] has as its target C-Raf kinase (SEQ. ID NO: 3) (Homo sapiens (Human), UniProt P04049, Y340D/Y341D). The experiment is described as follows: Biochemical Assay for C-Raf (1). The note with it: Table J, biochemical assay (1); read-out: CRAF (1). The essentials: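 Coupled pyruvate kinase/LDH assay tracking NADH oxidation at 340 nm, with 0.43 nM C-Raf, 30.1 nM MEK and 1 mM ATP in pH 7.5 Tris buffer (15 mM MgCl2, 1% DMSO final). Read continuously for 6 h at 30 °C, rate taken from the 4–5 h window. IC50 from four-parameter fit of percent inhibition.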

In the next experiment the test system is H2405 cells. The experiment is described as follows: H2405 Cell Proliferation Assay (1). It counts as cell-based. The note with it: Homo sapiens, NCI-H2405. The gist of the method:
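Viability was read by resazurin reduction (ex 540 nm, em 600 nm; 5-6 h with 40 μL of 440 μM stock) after 67-72 h compound exposure at 37 °C.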

The subject of a further experiment is WM3629 cells. Kind of experiment: WM3629 Cell Proliferation Assay (2). The experiment is classed as cell-based. On the procedure:
WM3629 Cell Proliferation Assay (2)
WM3629 cells (#WM3629-01-0001) are obtained from Rockland Immunochemicals Inc (Gilbertsville, PA). Briefly, cells were grown in MCDB 153 medium (Sigma, #M7403, St. Louis, MO) supplemented with 20% Leibovitz's L-15 (ThermoFisher #11415-064, Waltham, MA), 2% heat inactivated fetal bovine serum (ThermoFisher, #A3840001, Waltham, MA), 5 μg/mL Insulin (Bovine Pancreas) (Sigma, #I0516, St. Louis, MO), 1.68 mM Calcium Chloride (Sigma, #C-34006, St. Louis, MO) and 1% Penicillin/Streptomycin/L-Glutamine (ThermoFisher #10378016, Waltham, MA) at 37° C., 5% CO2, and 95% humidity. Cells are expanded until reaching 70-95% confluency at which point they are sub-cultured or harvested for assay use. Using the Beckman Coulter Echo 650, a serial dilution of test compound is dispensed into a 384-well black clear bottom plate in triplicate. One thousand one hundred twenty-five cells are added per well in 50 μL complete growth medium in the 384-well plate. Plates are incubated for 67-72 hours at 37° C., 5% CO2, and 95% humidity. At the end of the incubation, 10 μL of a 440 μM solution of resazurin (Sigma, #199303, St. Louis, MO) in PBS is added to each well of the plate and plates are incubated for an additional 3-6 hours at 37° C., 5% CO2, and 95% humidity. Plates are read on a Synergy2 or equivalent reader (Biotek, Winooski VT) using an excitation of 540 nm and an emission of 600 nm. Data is analyzed using Prism software (GraphPad, San Diego, CA) to calculate IC50 values.

The next experiment deals with Miapaca-2 cells. The experiment is described as follows: MiaPaca-2 Cell Proliferation Assay (2). It counts as cell-based. Particulars: Homo sapiens, MIA PaCa-2, single agent. On the procedure: MiaPaca-2 Cell Proliferation Assay (2)
Miapaca-2 cells (catalog #CRL-1420) are obtained from the American Type Culture Collect (ATTC, Manassas, VA). Briefly, cells were grown in DMEM supplemented with 10% characterized fetal bovine serum (Invitrogen, Carlsbad, CA), 2.5% New Zealand sourced horse serum and 1% Penicillin/Streptomycin/L-Glutamine at 37° C., 5% CO2, and 95% humidity. Cells are expanded until reaching 70-95% confluency at which point they are sub-cultured or harvested for assay use. A serial dilution of test compound is dispensed into a 384-well black clear bottom plate in triplicate. Seven hundred fifty cells are added per well in 50 μL complete growth medium in the 384-well plate. Plates are incubated for 67-72 h at 37° C., 5% CO2, and 95% humidity. At the end of the incubation, 10 μL of a 440 μM solution of resazurin (Sigma, St. Louis, MO) in PBS is added to each well of the plate and plates are incubated for an additional 5-6 h at 37° C., 5% CO2, and 95% humidity. Plates are read on a Synergy2 or equivalent reader (Biotek, Winooski VT) using an excitation of 540 nm and an emission of 600 nm. Data is analyzed using Prism software (GraphPad, San Diego, CA) to calculate IC50 values.

Where only a bound is given, the exact number is not on record here.

C-Raf kinase (SEQ. ID NO: 3), sequence (P04049 307-648 Y340D/Y341D): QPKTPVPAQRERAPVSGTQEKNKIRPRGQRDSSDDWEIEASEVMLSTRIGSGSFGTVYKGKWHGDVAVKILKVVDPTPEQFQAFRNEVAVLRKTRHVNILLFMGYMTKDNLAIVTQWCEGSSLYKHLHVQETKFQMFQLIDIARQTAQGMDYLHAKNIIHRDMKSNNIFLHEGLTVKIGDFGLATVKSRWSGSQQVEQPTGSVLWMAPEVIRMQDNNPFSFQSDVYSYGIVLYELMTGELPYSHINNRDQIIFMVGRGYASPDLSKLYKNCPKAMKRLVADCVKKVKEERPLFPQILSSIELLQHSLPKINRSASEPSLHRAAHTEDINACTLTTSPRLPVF

In the case of `Cc1cc(F)c(NC(=O)c2ccnc(C(C)(C)C#N)c2)cc1-c1cncc(-c2ccnc(NC(=O)C3CC3)c2)c1` [Example 418], the IC50 (in experiment [1]; with H2405 cells) was no more than 100 nM throughout.

For `COC(=O)Nc1cc(-c2cncc(-c3cc(NC(=O)c4ccnc(C(C)(C)F)c4)ccc3C)c2)ccn1` [Example 435], the IC50 (in experiment [1]; in the experiment on H2405 cells) was no more than 100 nM each time.

For `Cc1ncc(NC(=O)c2ccnc(C(C)(C)F)c2)cc1-c1cncc(-c2cc(NC(=O)C3CC3)ncn2)c1` [Example 406], the IC50 (in experiment [1]; in the experiment with H2405 cells) was no more than 100 nM in each case.

As for `CNC(=O)c1cc(-c2cc(-c3cc(NC(=O)c4ccnc(C(C)(C)F)c4)ccc3C)ncn2)ccn1` [Example 474], the IC50 in the experiment on WM3629 cells is no more than 100 nM.

As for `Cc1ncc(NC(=O)c2ccnc(C(C)(C)C#N)c2)cc1-c1cncc(-c2cc(NC(=O)C3CC3)ncn2)c1` [Example 410], the IC50 is no more than 100 nM in experiment [1] and 100 to 500 nM in the experiment on H2405 cells.

Turning to `Cc1ncc(NC(=O)c2ccnc(C(C)C)c2)cc1-c1ccnc(-c2ccnc(NC(=O)C3CC3)c2)c1` [Example 468], in the experiment on Miapaca-2 cells, the IC50 lay within 500 to 1000 nM.

For the molecule `Cc1ccc(NC(=O)c2ccnc(C(F)F)c2)cc1-c1cncc(-c2cc(NC(=O)C3CC3)ncn2)c1` [Example 429], the IC50 (in experiment [1]; in the experiment with H2405 cells) was no more than 100 nM throughout.

As to `COC(=O)Nc1cc(-c2cccc(-c3cc(NC(=O)c4ccnc(C(C)(C)F)c4)cnc3C)c2)ncn1` [Example 404], the results for the IC50 (in experiment [1]; with H2405 cells) were no more than 100 nM and 1000 to 10000 nM, respectively.

In the case of `Cc1ccc(NC(=O)c2cc(C3CC3)on2)cc1-c1cncc(-c2cc(NC(=O)C3CC3)ncn2)c1` [Example 421], the IC50 (in experiment [1]; with H2405 cells) was no more than 100 nM throughout.

As to `Cc1ccc(NC(=O)c2cn(C(C)C)nn2)cc1-c1cncc(-c2cc(NC(=O)C3CC3)ncn2)c1` [Example 412], the IC50 (in experiment [1]; in the experiment on H2405 cells) was no more than 100 nM each time.

With `CNC(=O)c1cc(-c2cc(-c3cc(NC(=O)c4ccnc(C(C)(C)F)c4)ccn3)ccn2)ccn1` [Example 481], in the experiment on WM3629 cells, the IC50 fell in the range of 1000 to 10000 nM.

For `CNC(=O)c1cc(-c2cc(-c3cc(NC(=O)c4ccnc(C(C)(C)C#N)c4)ccc3OC)ccn2)ccn1` [Example 437], the IC50 in experiment [1] is no more than 100 nM; with H2405 cells, 100 to 500 nM.

On to `Cc1ncc(NC(=O)c2ccnc(C(C)(F)F)c2)cc1-c1ccnc(-c2ccnc(NC(=O)C3CC3)c2)c1` [Example 466], for which, in the experiment on WM3629 cells, the IC50 is no more than 100 nM.

Turning to `Cc1ccc(NC(=O)c2cc(C(C)(C)C)on2)cc1-c1cncc(-c2cc(NC(=O)C3CC3)ncn2)c1` [Example 431], the IC50 (in experiment [1]; in the experiment with H2405 cells) was no more than 100 nM each time.

Take `CNC(=O)c1cc(-c2nccc(-c3cc(NC(=O)c4ccnc(C(C)(C)F)c4)c(F)cc3C)n2)ccn1` [Example 427]: the IC50 was no more than 100 nM in experiment [1] and 100 to 500 nM in the experiment on H2405 cells.

Turning to `COC(=O)Nc1cc(-c2cncc(-c3cc(NC(=O)c4ccnc(C(C)(C)C#N)c4)ccc3C)c2)ncn1` [Example 414], the IC50 (in experiment [1]; with H2405 cells) was no more than 100 nM each time.

As for `Cc1ccc(NC(=O)c2cnn(C3CC3)c2)cc1-c1cncc(-c2cc(NC(=O)C3CC3)ncn2)c1` [Example 430], the IC50 in experiment [1] was no more than 100 nM; in the experiment with H2405 cells, 100 to 500 nM.

Consider `COC(=O)Nc1cc(-c2cccc(-c3cc(NC(=O)Cn4cc(C(C)C)nn4)cnc3C)c2)ccn1` [Example 415], for which, in experiment [1], the IC50 is 100 to 500 nM.

Turning to `COc1ccc(NC(=O)c2ccnc(C(C)(C)C#N)c2)cc1-c1cccc(-c2cc(NC(=O)C3CC3)ncn2)c1` [Example 438], the IC50 is no more than 100 nM in experiment [1] and 100 to 500 nM in the experiment with H2405 cells.

In the case of `COC(=O)Nc1cc(-c2cnnc(-c3cc(NC(=O)c4cn(C(C)C)nn4)ccc3C)c2)ccn1` [Example 409], the IC50 in experiment [1] was 100 to 500 nM; in the experiment with H2405 cells, 1000 to 10000 nM.

On to `Cc1ccc(NC(=O)c2ccnc(C(C)(C)F)c2)cc1-c1cncc(-c2ccnc(NC(=O)C3CC3)c2)c1` [Example 417], for which the IC50 (in experiment [1]; in the experiment with H2405 cells) was no more than 100 nM each time.

In the case of `Cc1ccc(NC(=O)c2ccnc(C(C)(F)F)c2)cc1-c1cncc(-c2cc(NC(=O)C3CC3)ncn2)c1` [Example 419], the IC50 (in experiment [1]; with H2405 cells) was no more than 100 nM each time.

`Cc1ccc(NC(=O)c2ccnc(C(C)(C)F)c2)cc1-c1cncc(-c2ccnc3c2CC(=O)N3)c1` [Example 432]: in experiment [1], the IC50 is no more than 100 nM.

Turning to `COC(=O)Nc1cc(-c2cncc(-c3cc(NC(=O)c4ccnc(C5(C#N)CC5)c4)ccc3C)c2)ncn1` [Example 405], the IC50 (in experiment [1]; with H2405 cells) was no more than 100 nM throughout.

For the molecule `Cc1ccc(NC(=O)c2cc(C3CC3)n(C)n2)cc1-c1nccc(-c2ccnc(NC(=O)C3CC3)c2)n1` [Example 436], the IC50 (in experiment [1]; in the experiment with H2405 cells) was no more than 100 nM in each case.

Turning to `CNC(=O)c1cc(-c2cncc(-c3cc(NC(=O)c4ccnc(C(C)(C)F)c4)ccc3C)c2)ccn1` [Example 413], the IC50 (in experiment [1]; in the experiment on H2405 cells) was no more than 100 nM each time.

Regarding `COC(=O)Nc1cc(-c2cc(-c3cc(NC(=O)c4ccnc(C(C)(C)F)c4)ccc3C)nc(C)n2)ccn1` [Example 416], the results for the IC50 (in experiment [1]; in the experiment on H2405 cells) were no more than 100 nM and 100 to 500 nM, respectively.

Turning to `CNC(=O)c1cc(-c2cncc(-c3cc(NC(=O)c4ccnc(C(C)(C)F)c4)c(F)cc3C)c2)ccn1` [Example 408], the values for the IC50 (in experiment [1]; with H2405 cells) were no more than 100 nM and 100 to 500 nM, respectively.

On to `Cc1cc(F)c(NC(=O)c2ccnc(C(C)(C)F)c2)cc1-c1cncc(-c2cc(NC(=O)C3CC3)ncn2)c1` [Example 423], for which the IC50 in experiment [1] was no more than 100 nM.

Take `Cc1cc(F)c(NC(=O)c2ccnc(C(C)(C)C#N)c2)cc1-c1cncc(-c2cc(NC(=O)C3CC3)ncn2)c1` [Example 424]: the IC50 in experiment [1] was no more than 100 nM.

On to `CNC(=O)c1cc(-c2cc(-c3cc(NC(=O)c4cnnc(C(F)(F)F)c4)ccc3C)ccn2)ccn1` [Example 477], for which the IC50 in the experiment on WM3629 cells was no more than 100 nM.

Turning to `Cc1ccc(NC(=O)c2ccnc(C(C)(C)C#N)c2)cc1-c1cncc(-c2cc(N)ncn2)c1` [Example 422], the IC50 in experiment [1] was no more than 100 nM; with H2405 cells it was 100 to 500 nM.

With `Cc1ccc(NC(=O)c2ccnc(C(C)(C)C#N)c2)cc1-c1cncc(-c2cc(NC(=O)C(C)C)ncn2)c1` [Example 420], the IC50 (in experiment [1]; in the experiment with H2405 cells) was no more than 100 nM each time.

As to `Cc1ccc(NC(=O)c2ccnc(C(C)C)c2)cc1-c1cncc(-c2cc(NC(=O)C3CC3)ncn2)c1` [Example 434], the IC50 in experiment [1] was no more than 100 nM.

Take `Cc1ccc(NC(=O)c2ccnc(C(C)(C)F)c2)cc1-c1cncc(-c2cc(N)ncn2)c1` [Example 411]: the IC50 in experiment [1] was no more than 100 nM; in the experiment with H2405 cells, 100 to 500 nM.

On to `CNC(=O)c1cc(-c2cc(-c3cc(NC(=O)c4ccnc(C(C)(C)F)c4)ccc3C)nc(C)n2)ccn1` [Example 428], for which the IC50 (in experiment [1]; in the experiment with H2405 cells) was 100 to 500 nM throughout.

On to `Cc1ncc(NC(=O)c2ccnc(C(C)(C)F)c2)cc1-c1cncc(-c2ccnc(NC(=O)C3CC3)c2)c1` [Example 433], for which the IC50 in experiment [1] was no more than 100 nM.

As for `COC(=O)Nc1cc(-c2cncc(-c3cc(NC(=O)c4ccnc(C(C)(C)F)c4)ccc3C)c2)ncn1` [Example 425], the IC50 (in experiment [1]; in the experiment on H2405 cells) was no more than 100 nM throughout.

In the case of `Cc1cc(-c2cc(NC(=O)c3ccnc(C(C)(C)F)c3)ccc2C)cc(-c2ccnc(C#N)c2)n1` [Example 483], the IC50 in the experiment with WM3629 cells is no more than 100 nM.

`Cc1ncc(NC(=O)c2ccnc(C(C)(C)C#N)c2)cc1-c1cccc(-c2cnc3ccccn23)c1` [Example 407]: the IC50 lay in the range of 100 to 500 nM in experiment [1] and 500 to 1000 nM in the experiment with H2405 cells.

Take `CNC(=O)c1cc(-c2cc(-c3cc(NC(=O)c4ccnc(C(C)(C)F)c4)ccc3C)cnn2)ccn1` [Example 473]: the IC50 with WM3629 cells was no more than 100 nM.
